Data as given in patent US8778959B2, “AZA-bridged ring-fused indoles and indolines” (AbbVie Inc., priority 2009, dated 2014).

Experiments:
[1] = system: mouse model of multiple sclerosis; conditions: in vivo administration; cited from earlier work
[2] = system: primary postnatal (P0) cortical cells; test: Neurite Outgrowth Assay (Aβ1-42-treated cortical cells); type: cell-based, rat; conditions: n = 1; for % Attenuation Effect of 5 μM Aβ 1-42: 5 μM Aβ1-42; for Emax: Rattus norvegicus, maximum response relative to 300 nM dimebolin, at the concentration given, read-out: Maximum Effect (of % 300 nM Dimebolin) at Concentration; for Concentration (nM) of Maximum Effect: test compound concentration at which the maximum response was noted
Protocol: In addition to PC12 cells, other cellular model systems may also be used. Rat cortical cells can be cultured and prepared for high content microscopy analysis as previously described (Hu, M.; Schurdak, M. E.; et al. High content screen microscopy analysis of Aβ1-42-induced neurite outgrowth reduction in rat primary cortical neurons: Neuroprotective effects of α7 neuronal nicotinic acetylcholine receptor ligands. Brain Res. 2007, 1151, 227-235). Briefly, cortical cell cultures are plated at density of 5×10^5 cells/mL onto poly-D-lysine coated 96-well plates and maintained in a cell incubator at 37° C. with 5% CO2. Experiments are performed using 6-7 day-old cortical cell cultures by treating with test compounds. In some experiments, the effect of test compounds on reversing Aβ toxicity can also be measured (Hu, M.; Schurdak, M. E.; et al. High content screen microscopy analysis of Aβ1-42-induced neurite outgrowth reduction in rat primary cortical neurons: Neuroprotective effects of α7 neuronal nicotinic acetylcholine receptor ligands. Brain Res. 2007, 1151, 227-235). For assessment of neuroprotective effects, cells are first pretreated with test compounds for about 5 hours. Medium is then replaced with the medium containing freshly prepared about 5 μM Aβ1-42 peptide in the absence or presence of the test compounds for 3 days. The untreated group contains the same percentage of vehicle (DMSO) as in the treatment groups. Cells are fixed with approximately 4% paraformaldehyde containing 0.5% Hoechst 33342 for about 15 minutes, followed by three washes using PBS (pH 7.4) and blocked with 10% donkey serum in PBS for 1 hour at room temperature. The cells are then incubated overnight at about 4° C. with mouse anti-tubulin monoclonal antibody (1:100) for staining neurons and rabbit anti-GFAP (1:1000) for staining glia. In the next day, cells are incubated with FITC-labeled anti-mouse and TRITC-labeled anti-rabbit antibodies (1:1000) for about 1 hour at room temperature. After fixing and staining the cells, nuclei (360/400 nm excitation and 465/300 nm emission filters), neuron (475/350 nm excitation and 535/400 nm emission filters) and glial cell (535 nm excitation and 610 nm emission filters) images are collected using the ImageExpress Micro automatic fluorescent microscopy system (Molecular Devices, Sunnyvale, Calif.) employing a Nikon 10× Plan Fluor objective and Cool Snap HQ CCD camera. The Neurite Outgrowth module in the MetaMorph Imaging software can be used to automatically count total cell number, number of neuron cells, and the extent of neurite outgrowth.
The neurite outgrowth observed for untreated cells is set to 100% response. Treatment of cells with compounds prior to and concomitantly with Aβ1-42 gave a neuroprotective effect with neurite outgrowth maintained or enhanced relative to untreated cells.

[3] = system: SK-N-SH human neuroblastoma cells; test: Serum Deprivation/JC-1 Mitochondrial Membrane Potential (MMP) Assay; type: cell-based; conditions: Homo sapiens, SK-N-SH, 18 h; for Emax: percent maximal intensity in JC-1 ratio normalized to peak value for 10 μM dimebolin, read-out: JC-1 max %; for EC50: serum deprivation ~18 hours, JC-1 ratio normalized to peak value for 10 μM dimebolin, single curve fit to mean of n=2-3
Protocol: SK-N-SH human neuroblastoma cells obtained from American Type Culture Collection (Rockville, Md.) were maintained in the log phase of growth in Minimal Essential Media (MEM), 10% heat inactivated fetal calf serum and 100 units/mL antibiotic-antimycotic (AA). Cells were cultured and maintained in a humidified incubator at 37° C. under 5% CO2 and 95% air. Cells were trypsinized (0.25%) and subcultured every 3 days and used from 15-18 passages. All cell culture supplies were obtained from Invitrogen (Carlsbad, Calif.).
SK-N-SH cells were plated 2-3 days in advance at a concentration of 50,000 cells/well onto collagen coated black-walled 96 well plates (Becton-Dickinson, Bedford, Mass.) in a total volume of 200 μL. On day of experimental treatment, the media containing serum was aspirated from each well and rinsed once with MEM/1% AA without serum. The cells then were incubated overnight in 100 μL of MEM/1% AA (no serum) with and without dimebolin or novel chemical entities overnight for ˜18 hours. The following day, JC-1 dye (5,5′,6,6′-tetrachloro-1,1′,3,3′-tetraethylbenzimidazolcarbocyanide) was diluted 1:10 into MEM media according to the JC-1 Mitochondrial Membrane Potential Assay Kit: (Cayman Chemical Company, Ann Arbor, Mich.) and then 10 μL of the JC-1 dye solution was added to each well. The plates were centrifuged for 5 minutes at 400×g at room temperature followed by 35 minute incubation at 37° C. The plates were washed twice with 200 μL of provided Assay Buffer followed an addition of 100 μL of Assay Buffer to each well. The plates were read with an excitation and emission of 560 nm and 595 nM for red fluorescence and with an excitation and emission of […] and 535 nM for green fluorescence to determine the final JC-1 value taking the red to green fluorescence ratio. This assay is based on change in mitochondrial membrane potential (MMP) using this lipophilic cationic dye, JC-1, by monitoring the changes in the ratio of red to green fluorescence as the MMP depolarizes. This change in MMP reflects the health of the cell with healthy, viable cells have a high JC-1 ratio and high MMP whereas apoptotic, unhealthy cells have a low JC-1 ratio or low MMP.
For the ability of compounds to reverse the stress due to serum deprivation and increase the JC-1 ratio, the percent maximal intensity in JC-1 ratio was normalized to that induced by the peak value for 10 μM dimebolin and plotted against the compound concentration to calculate EC50 values and to control for plate-to-plate variability. Concentration-response data were analyzed using GraphPad Prism (San Diego, Calif.); the EC50 values were derived from a single curve fit to the mean data of n=2-3, in duplicates.
All compounds were dissolved in dimethyl sulfoxide at 10 mM stock solutions and tested at a concentration that the dimethyl sulfoxide levels never exceeded 1%.

[4] = system: primary rat cortical neurons; conditions: comparable to that evoked by BDNF; cited from earlier work
[5] = system: patients with mild-to-moderate Alzheimer's disease; conditions: cited from earlier work

| SMILES | Development of the disease [1] | % Attenuation Effect of 5 μM Aβ 1-42 [2] | Emax [2] [%] | Concentration (nM) of Maximum Effect [2] [nM] | Emax [3] [%] | EC50 [3] [µM] | Neurite outgrowth [4] | Clinical course of disease (ADAS-Cog, improvement over baseline) ([5]; 20 mg three times a day (60 mg/day)) | Most frequent adverse event ([5]; reported clinical studies) |
| --- | --- | --- | --- | --- | --- | --- | --- | --- | --- |
| O=C1C=C(c2ccccc2)C(=O)N1c1cccc(Cl)c1 [1-(3-chlorophenyl)-3-phenyl-pyrrole-2,5-dione] | significantly prevented the development of the disease | – | – | – | – | – | – | – | – |
| Cc1ccc(/C=C/c2cccc3c4c([nH]c23)CC2CCC4N2C)cn1 (centres unmarked) [Example 1, 11-methyl-4-[(E)-2-(6-methylpyridin-3-yl)vinyl]-5,6,7,8,9,10-hexahydro-7,10-epiminocyclohepta[b]indole] | – | 27 (n = 1) % | 103 | 0.3 | 214 | 3.19 | – | – | – |
| c1ccc(COc2cccc3c4c([nH]c23)C[C@H]2CCC[C@@H]4N2)cc1 (stereo in doubt) [Example 9, (7R*,11S*)-4-(benzyloxy)-6,7,8,9,10,11-hexahydro-5H-7,11-epiminocycloocta[b]indole] | – | 45 (n = 1) % | 115 | 0.03 | 130 | 6.03 | – | – | – |
| Cc1ccc2c(c1)c1c(n2CCc2ccc(C)nc2)CCN(C)C1 [dimebolin, 2,3,4,5-tetrahydro-2,8-dimethyl-5-[2-(6-methyl-3-pyridinyl)ethyl]-1H-pyrido[4,3-b]indole] | – | – | – | – | – | – | increase neurite outgrowth | significant improvement | dry mouth |
